Results reported in patent publication US20230278983A1, “INDOLE DERIVATIVES AND USES THEREOF FOR TREATING A CANCER” (Universite Claude Bernard Lyon 1, priority 2020, published 2023).

molecular target: CK2 (Homo sapiens (Human), UniProt P68400); assay: Radiometric CK2 kinase assay; format: biochemical; settings: not given
Sequence (P68400 whole entry): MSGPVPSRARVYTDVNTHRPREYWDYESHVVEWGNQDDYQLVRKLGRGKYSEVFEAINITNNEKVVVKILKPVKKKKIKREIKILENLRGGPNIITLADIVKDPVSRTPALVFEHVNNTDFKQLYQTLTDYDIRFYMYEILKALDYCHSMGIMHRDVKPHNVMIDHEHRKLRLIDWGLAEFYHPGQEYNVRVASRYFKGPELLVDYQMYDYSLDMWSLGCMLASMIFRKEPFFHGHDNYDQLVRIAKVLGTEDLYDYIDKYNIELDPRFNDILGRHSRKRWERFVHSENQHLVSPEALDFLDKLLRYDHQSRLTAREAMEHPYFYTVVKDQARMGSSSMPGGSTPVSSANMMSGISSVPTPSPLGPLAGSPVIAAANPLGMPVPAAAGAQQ

Going from `CC(=O)c1[nH]c2ccc(F)cc2c1-c1cn(CC2CCN(CCNS(=O)(=O)c3ccc(CC(C)C)cc3)CC2)nn1` [AB1135, N-(2-(4-((4-(2-acetyl-5-fluoro-1H-indol-3-yl)-1H-1,2,3-triazol-1-yl)methyl)piperidin-1-yl)ethyl)-4-isobutylbenzenesulfonamide] to `CC(C)COC(=O)c1[nH]c2ccc(F)cc2c1-c1cn(CC2CCN(CCNS(=O)(=O)c3ccc(C(C)C)cc3)CC2)nn1` [AB603, Isobutyl 5-fluoro-3-(1-((1-(2-((4-isopropylphenyl)sulfonamido)ethyl)piperidin-4-yl)methyl)-1H-1,2,3-triazol-4-yl)-1H-indole-2-carboxylate], the IC50 rises from 0.048 µM to 0.15 µM (3.1-fold). The first is the more potent here.

`CCOC(=O)c1[nH]c2cc(Cl)ccc2c1-c1cn(CC2CCN(CCNS(=O)(=O)c3ccc(C)cc3)CC2)nn1` [AB503, Ethyl 6-chloro-3-(1-((1-(2-((4-methylphenyl)sulfonamido)ethyl)piperidin-4-yl)methyl)-1H-1,2,3-triazol-4-yl)-1H-indole-2-carboxylate] and `CCOC(=O)c1[nH]c2cc(Cl)ccc2c1-c1cn(CC2CCN(CCNS(=O)(=O)c3ccc(Cl)cc3)CC2)nn1` [AB433, Ethyl 6-chloro-3-(1-((1-(2-((4-chlorophenyl)sulfonamido)ethyl)piperidin-4-yl)methyl)-1H-1,2,3-triazol-4-yl)-1H-indole-2-carboxylate] are within 1.5-fold of each other in IC50: 9.85 µM for the first, 8.1 µM for the second.

Compared with `COc1cccc(OC)c1-c1ccc(S(=O)(=O)NCCN2CCC(Cn3cc(-c4c(C(C)=O)[nH]c5ccc(F)cc45)nn3)CC2)cc1F` [AB1454, N-(2-(4-((4-(2-acetyl-5-fluoro-1H-indol-3-yl)-1H-1,2,3-triazol-1-yl)methyl)piperidin-1-yl)ethyl)-2-fluoro-2′,6′-dimethoxy-[1,1′-biphenyl]-4-sulfonamide], `CC(C)COC(=O)c1[nH]c2ccc(F)cc2c1-c1cn(CC2CCN(CCNS(=O)(=O)c3ccc(-c4c(F)cccc4F)cc3)CC2)nn1` [AB1208, isobutyl 3-(1-((1-(2-((2′,6′-difluoro-[1,1′-biphenyl])-4-sulfonamido)ethyl)piperidin-4-yl)methyl)-1H-1,2,3-triazol-4-yl)-5-fluoro-1H-indole-2-carboxylate] is 4.1-fold higher in IC50: 0.011 µM for the first, 0.045 µM for the second.

Going from `CCOC(=O)c1[nH]c2ccc(F)cc2c1-c1cn(CC2CCN(CCNS(=O)(=O)c3ccc(C)cc3)CC2)nn1` [AB504, Ethyl 5-fluoro-3-(1-((1-(2-((4-methylphenyl)sulfonamido)ethyl)piperidin-4-yl)methyl)-1H-1,2,3-triazol-4-yl)-1H-indole-2-carboxylate] to `CC(C)COC(=O)c1[nH]c2ccc(F)cc2c1-c1cn(CC2CCN(CCNS(=O)(=O)c3ccc(C(C)(C)C)cc3)CC2)nn1` [AB934, isobutyl 3-(1-((1-(2-((4-(tert-butyl)phenyl)sulfonamido)ethyl)piperidin-4-yl)methyl)-1H-1,2,3-triazol-4-yl)-5-fluoro-1H-indole-2-carboxylate], the IC50 falls from 1.8 µM to 0.052 µM (35-fold).

Work on `O=S(=O)(NCCN1CCC(Cn2cc(-c3c[nH]c4ccccc34)nn2)CC1)c1ccccc1` [AB150, N-(2-(4-((4-(1H-Indol-3-yl)-1H-1,2,3-triazol-1-yl)methyl)piperidin-1-yl)ethyl)benzenesulfonamide] yielded an IC50 of 48.5 µM.

For `CC(C)COC(=O)c1[nH]c2ccc(F)cc2c1-c1cn(CC2CCN(CCNS(=O)(=O)c3ccc(C(C)C)cc3)CC2)nn1` [AB603, Isobutyl 5-fluoro-3-(1-((1-(2-((4-isopropylphenyl)sulfonamido)ethyl)piperidin-4-yl)methyl)-1H-1,2,3-triazol-4-yl)-1H-indole-2-carboxylate], the “Competition with peptide substrate” value was “not competitive with the peptide substrate”.

same assay, conditions: CK2a compared with CK2 holoenzyme

For `CC(C)COC(=O)c1[nH]c2ccc(F)cc2c1-c1cn(CC2CCN(CCNS(=O)(=O)c3ccc(C(C)C)cc3)CC2)nn1` [AB603, Isobutyl 5-fluoro-3-(1-((1-(2-((4-isopropylphenyl)sulfonamido)ethyl)piperidin-4-yl)methyl)-1H-1,2,3-triazol-4-yl)-1H-indole-2-carboxylate], the “Inhibition of CK2a versus CK2 holoenzyme” value was “not inhibited to the same extent”.

same assay, conditions: compound at 0.05 μM; ATP 10 μM

With `COc1ccccc1-c1ccc(S(=O)(=O)NCCN2CCC(Cn3cc(-c4c(C(=O)OCC(C)C)[nH]c5ccc(F)cc45)nn3)CC2)cc1` [AB1205, isobutyl 5-fluoro-3-(1-((1-(2-((2′-methoxy-[1,1′-biphenyl])-4-sulfonamido)ethyl)piperidin-4-yl)methyl)-1H-1,2,3-triazol-4-yl)-1H-indole-2-carboxylate] the inhibition at 0.05 µM was 59%.

same assay, conditions: compound at 0.10 μM; ATP 10 μM

Compared with `CCCC(=O)c1[nH]c2ccc(F)cc2c1-c1cn(CC2CCN(CCNS(=O)(=O)Cc3ccc(C(F)(F)F)cc3)CC2)nn1` [AB1307, N-(2-(4-((4-(2-butyryl-5-fluoro-1H-indol-3-yl)-1H-1,2,3-triazol-1-yl)methyl)piperidin-1-yl)ethyl)-1-(4-(trifluoromethyl)phenyl)methanesulfonamide], `CC(=O)c1[nH]c2ccc(F)cc2c1-c1cn(CC2CCN(CCNS(=O)(=O)c3ccc(-c4c(C#N)cccc4C(F)(F)F)cc3)CC2)nn1` [AB1393, N-(2-(4-((4-(2-acetyl-5-fluoro-1H-indol-3-yl)-1H-1,2,3-triazol-1-yl)methyl)piperidin-1-yl)ethyl)-2′-cyano-6′-(trifluoromethyl)-[1,1′-biphenyl]-4-sulfonamide] is higher in inhibition at 0.1 µM: 12% for the first, 31% for the second.

Going from `CC(C)COC(=O)c1[nH]c2ccc(F)cc2c1-c1cn(CC2CCN(CCNS(=O)(=O)c3ccc(-c4ccc(C#N)cc4)cc3)CC2)nn1` [AB1134, isobutyl 3-(1-((1-(2-((4′-cyano-[1,1′-biphenyl])-4-sulfonamido)ethyl)piperidin-4-yl)methyl)-1H-1,2,3-triazol-4-yl)-5-fluoro-1H-indole-2-carboxylate] to `CC(=O)c1[nH]c2ccc(F)cc2c1-c1cn(C[C@@H]2CCN(CCNS(=O)(=O)c3ccc(CC(C)C)cc3)C2)nn1` [AB1319], the inhibition at 0.1 µM rises from 5% to 33%.

same assay, conditions: compound at 1 μM; ATP 10 μM

Compared with `CC(C)CNC(=O)c1[nH]c2ccc(F)cc2c1-c1cn(CC2CCN(CCNS(=O)(=O)c3ccc(C(C)C)cc3)CC2)nn1` [AB652, 5-Fluoro-N-isobutyl-3-(1-((1-(2-((4-isopropylphenyl)sulfonamido)ethyl)piperidin-4-yl)methyl)-1H-1,2,3-triazol-4-yl)-1H-indole-2-carboxamide], `CC(C)CCOc1ccc(CN2CCC(Cn3cc(-c4c(C(=O)OCC(C)C)[nH]c5ccc(F)cc45)nn3)CC2)cc1Cl` [AB746, Isobutyl 3-(1-((1-(3-chloro-4-(isopentyloxy)benzyl)piperidin-4-yl)methyl)-1H-1,2,3-triazol-4-yl)-5-fluoro-1H-indole-2-carboxylate] is higher in inhibition at 1 µM: 4% for the first, 15% for the second.

same assay, conditions: inhibition of CK2 activity; ATP 10 μM

`CC(C)Cc1ccc(S(=O)(=O)NCCN2CCC(Cn3cc(-c4c(C=O)[nH]c5ccc(F)cc45)nn3)CC2)cc1` [AB1235, N-(2-(4-((4-(5-fluoro-2-formyl-1H-indol-3-yl)-1H-1,2,3-triazol-1-yl)methyl)piperidin-1-yl)ethyl)-4-isobutylbenzenesulfonamide] and `Cc1ccc(CS(=O)(=O)NCCN2CCC(Cn3cc(-c4c(C(=O)OCC(C)C)[nH]c5ccc(F)cc45)nn3)CC2)cc1` [AB1210, isobutyl 5-fluoro-3-(1-((1-(2-((p-tolylmethyl)sulfonamido)ethyl)piperidin-4-yl)methyl)-1H-1,2,3-triazol-4-yl)-1H-indole-2-carboxylate] are within 1.5-fold of each other in IC50: 0.09 µM for the first, 0.085 µM for the second.

`CC(C)COC(=O)c1[nH]c2ccc(F)cc2c1-c1cn(CC2CCN(CCNS(=O)(=O)N3CCC(Cc4ccccc4)CC3)CC2)nn1` [AB918, isobutyl 3-(1-((1-(2-((4-benzylpiperidine)-1-sulfonamido)ethyl)piperidin-4-yl)methyl)-1H-1,2,3-triazol-4-yl)-5-fluoro-1H-indole-2-carboxylate] and `CC(=O)c1[nH]c2ccc(F)cc2c1-c1cn(CC2CCN(CCNS(=O)(=O)c3ccc(-c4cccnc4F)cc3)CC2)nn1` [AB1289, N-(2-(4-((4-(2-acetyl-5-fluoro-1H-indol-3-yl)-1H-1,2,3-triazol-1-yl)methyl)piperidin-1-yl)ethyl)-4-(2-fluoropyridin-3-yl)benzenesulfonamide] are within 1.5-fold of each other in IC50: 0.4 µM for the first, 0.44 µM for the second.
